Experimental data as given in US8841342B2, “Carrier” (Vital Health Sciences Pty. Ltd., priority 2002, dated 2014).

How the values were obtained:
[1] = cited from earlier work
[2] = Acute transdermal penetration of 3H-estradiol and 3H-estradiol phosphate in the hairless rat; format: in vivo, female albino hairless rats; conditions: 24 hour period
Description: Animals: 6 female albino hairless rats were used in this study (n=3 per treatment group).
Transdermal Formulation Preparation and Application: ^3H-E and ^3H-EP were provided by Vital Health Sciences Pty Ltd and prepared in formula approximately 1 hour before application in the carrier cream from Example 1.
The solvents from both ^3H-E and ^3H-EP were evaporated under a stream of nitrogen. Once completely dry 0.498 g of the carrier cream of example 1 was added to ^3H-E and 0.502 g to ^3H-EP and mixed with a glass rod and centrifuged for 1 minute. This was repeated 5 times.
Each formulation was applied to the dorsal skin of an anaesthetised rat in an area of approximately 4 cm^2 marked with an indelible felt tip marker. […] The formulation was ‘rubbed’ in until it appeared to have been absorbed into the skin, which took between 5 to 10 minutes. A tegaderm (3M) patch was applied to the area to prevent animals from removing the formulation.

[3] = Transdermal delivery of estradiol and estradiol phosphate in ovariectomised hairless rats, total estrogens RIA in plasma
Description: Animals: 23 female albino hairless rats were ovariectomised under isoflurane-induced anaesthesia and allowed to recover for 10 days prior to experimentation.
Blood was collected into EDTA tubes, then centrifuged at 5000 rpm for 10 minutes. Plasma was removed and stored at −80° C. until assayed.
20 μl was transferred to an Eppendorf tube and the solvent was evaporated in a nitrogen stream. Then 0.999 g of the carrier cream from example 1 was added, and mixed with a glass rod and centrifuged. This was repeated 5 times. Final concentration=4.90 μg/ml.
20 μl was transferred to an Eppendorf tube and the solvent was evaporated in a nitrogen stream. Then 1.003 g of the carrier cream from example 1 was added, and mixed with a glass rod and centrifuged. This was repeated 5 times. Final concentration=4.89 μg/ml.
20 μl of these solutions was directly applied to the skin.
Each formulation was applied to the dorsal skin of an anaesthetised rat in an area of approximately 4 cm^2 marked with an indelible felt tip marker. […] The formulation was ‘rubbed’ in until it appeared to have been absorbed into the skin, which took between 5-10 min. […]
The standard curve range for this assay is 2.5-100 pg/ml (r^2=−0.943). Extraction efficiency was determined through a series of spiking assays and was between 90 to 98% using diethyl ether as the extraction solvent for rat plasma and organs. […]

[4] = Transdermal delivery of testosterone and testosterone phosphate in ovariectomised hairless rats, total testosterone in plasma; format: in vivo, Female albino hairless rats; conditions: for concentration of testosterone in blood: topical 1 μg in carrier of Example 1
Description: Animals: 12 Female albino hairless rats were ovariectomised under isoflurane-induced anesthesia and allowed to recover for 15 days prior to experimentation.
Plasma was removed and stored at −80° C. until assay.
Testosterone Phosphate (TP): 4.41 mg of TP was dissolved in 15 ml of water and then made up to 100 ml with ethanol. […] This was repeated 5 times.
Testosterone (T): 3.94 mg of T was dissolved in 15 ml of water and then made up to 100 ml with ethanol. […] This was repeated 5 times.

C[C@]12CC[C@@H]3c4ccc(O)cc4CC[C@H]3[C@@H]1CC[C@@H]2O [E, estradiol]
mean blood levels of estradiol 24 hours post dose ([1]; 3 mg daily over 30 cm2, carrier with padimate O, 4 women, 9 days): 0.053 ± 0.007 ng/mL | improvement of circulating estradiol from baseline ([1]; baseline 13±5 pg/ml): 4 fold

C[C@]12CC[C@@H]3c4ccc(O)cc4CC[C@H]3[C@@H]1CC[C@@H]2OP(=O)(O)O [EP, estradiol 3:phosphate]
levels in epidermis and dermis [2]: Higher levels of EP were found in the epidermis and dermis | plasma concentration of the hormone, EP versus E treatment ([3]; equivalent doses in carrier of Example 1, over 24 hours): at least twice the plasma concentration of the hormone compared to the E treatment | inflammatory symptoms (erythema, oedema) at the application site ([3]; topical in carrier cream of Example 1): neither E or EP treatment produced any inflammatory symptoms

C[C@]12CC[C@H]3[C@@H](CCC4=CC(=O)CC[C@@]43C)[C@@H]1CC[C@@H]2O [T, testosterone]
concentration of testosterone in blood [4]: increased | maximum concentration of total testosterone in plasma (mean±SD) ([4]; topical 1 μg in carrier of Example 1, baseline subtracted): 30.90 ± 11.00 pg/mL

testosterone phosphate [TP]
concentration of testosterone in blood [4]: increased
